Assay results reported in ChEMBL document CHEMBL4229345, “Inhibition of trypanosome alternative oxidase without its N-terminal mitochondrial targeting signal (ΔMTS-TAO) by cationic and non-cationic 4-hydroxybenzoate and 4-alkoxybenzaldehyde derivatives active against T. brucei and T. congolense” (Eur J Med Chem, 2018).

Tests used:
[1] = system: Trypanosoma brucei brucei; assay: Anti-parasitic activity against bloodstream trypomastigote stage of wild-type Trypanosoma brucei brucei Lister 427 after 48 hrs by resazurin-based assay; type: functional, organism-based; conditions: Lister 427, 48 h
[2] = system: Trypanosoma brucei brucei; assay: Resistance factor, ratio of EC50 for bloodstream trypomastigote stage of wild-type Trypanosoma brucei brucei Lister 427 in presence of 5 mM glycerol to EC50 for bloodstream trypomastigote stage of wild-type Trypanosoma brucei brucei Lister 427; type: functional
[3] = system: Trypanosoma brucei brucei; assay: Anti-parasitic activity against bloodstream trypomastigote stage of Trypanosoma brucei brucei with AQP2/3-dd knock out after 48 hrs by resazurin-based assay; type: functional, organism-based
[4] = system: Trypanosoma brucei brucei; assay: Anti-parasitic activity against bloodstream trypomastigote stage of Trypanosoma brucei brucei with AQP triple knock out after 48 hrs by resazurin-based assay; type: functional, organism-based
[5] = system: Trypanosoma brucei brucei; assay: Resistance factor, ratio of EC50 for bloodstream trypomastigote stage of Trypanosoma brucei brucei with AQP2/3-dd knock out to EC50 for bloodstream trypomastigote stage of wild-type Trypanosoma brucei brucei Lister 427; type: functional
[6] = system: Trypanosoma brucei brucei; assay: Resistance factor, ratio of EC50 for bloodstream trypomastigote stage of Trypanosoma brucei brucei AQP triple knock out to EC50 for bloodstream trypomastigote stage of wild-type Trypanosoma brucei brucei Lister 427; type: functional
[7] = Resistance factor, ratio of EC50 for bloodstream trypomastigote stage of pentamidine/diminazene/melaminophenyl arsenical resistant Trypanosoma brucei B48 to EC50 for bloodstream trypomastigote stage of wild-type Trypanosoma brucei brucei Lister 427; type: functional
[8] = Inhibition of recombinant N-terminal His6 tagged SUMO-fused Trypanosoma brucei brucei TC221 TAO MTS deletion mutant expressed in Escherichia coli FN102 preincubated for 2 mins followed by ubiquinol-1 addition measured over 2 mins by double beam-dual wavelength UV-spectrophotometry
[9] = system: Trypanosoma brucei brucei; assay: Anti-parasitic activity against bloodstream trypomastigote stage of wild-type Trypanosoma brucei brucei Lister 427 after 48 hrs in presence of 5 mM glycerol by resazurin-based assay; type: functional, organism-based; conditions: Lister 427, 48 h
[10] = system: Trypanosoma congolense; assay: Anti-parasitic activity against bloodstream form of Trypanosoma congolense IL3000 after 48 hrs by resazurin-based assay; type: functional, organism-based; conditions: IL3000, 48 h
[11] = Cytotoxicity against HFF cells assessed as reduction in cell viability after 30 hrs by resazurin-based assay; conditions: human
[12] = system: Trypanosoma brucei; assay: Anti-parasitic activity against bloodstream trypomastigote stage of pentamidine/diminazene/melaminophenyl arsenical resistant Trypanosoma brucei B48 after 48 hrs by resazurin-based assay; type: functional, organism-based; conditions: B48, 48 h
[13] = Competitive inhibition of recombinant N-terminal His6 tagged SUMO-fused Trypanosoma brucei brucei TC221 TAO MTS deletion mutant expressed in Escherichia coli FN102 preincubated for 2 mins followed by ubiquinol-1 addition measured over 2 mins by Lineweaver-Burk plot analysis
[14] = Selectivity index, ratio of CC50 for HFF cells to EC50 for bloodstream trypomastigote stage of wild-type Trypanosoma brucei brucei Lister 427; type: toxicity; conditions: human, read-out: Ratio CC50/EC50
[15] = Cytotoxicity against HEK cells assessed as reduction in cell viability after 30 hrs by resazurin-based assay; conditions: human
[16] = Selectivity index, ratio of CC50 for HEK cells to EC50 for bloodstream trypomastigote stage of wild-type Trypanosoma brucei brucei Lister 427; type: toxicity; conditions: human, read-out: Ratio CC50/EC50
[17] = Selectivity index, ratio of CC50 for HFF cells to EC50 for bloodstream form of Trypanosoma congolense IL3000; type: toxicity; conditions: human, read-out: Ratio CC50/EC50
[18] = system: Trypanosoma brucei brucei; assay: Potency index, ratio of diminazene EC50 to test compound EC50 for anti-parasitic activity against bloodstream trypomastigote stage of wild-type Trypanosoma brucei brucei Lister 427; type: functional
[19] = system: Trypanosoma congolense; assay: Potency index, ratio of diminazene EC50 to test compound EC50 for anti-parasitic activity against bloodstream form of Trypanosoma congolense IL3000; type: functional
[20] = Half life in mouse serum by LC/MS analysis; type: ADME, cell-free

SMILES	EC50 [1] [µM]	Ratio EC50 [2]	EC50 [3] [µM]	EC50 [4] [µM]	Ratio EC50 [5]	Ratio EC50 [6]	Ratio EC50 [7]	IC50 [8] [µM]	EC50 [9] [µM]	EC50 [10] [µM]	CC50 at 30 h [11] [µM]	EC50 [12] [µM]	Ki [13] [µM]	selectivity ratio [14]	CC50 at 30 h [15] [µM]	selectivity ratio [16]	selectivity ratio [17]	Ratio EC50 [18]	Ratio EC50 [19]	half-life [20] [min]
N=C(N)c1ccc(OCCCCCOc2ccc(C(=N)N)cc2)cc1 [PENTAMIDINE]	0.0033	1.14	0.047	0.064	14.1	19.2	285	–	–	–	–	–	–	–	–	–	–	–	–	–
O=Cc1ccc(OCCCCCCCCCCCCCCOc2ccc(C=O)c(O)c2)cc1O	400	–	400	400	–	–	–	0.24	400	400	> 200	400	–	–	–	–	–	–	–	–
Cc1cc(O)ccc1C(=O)OCCCCCCCCCCCCCCOC=O	4.1	1.92	1.4	1.8	0.34	0.45	1.1	0.0011	7.8	–	> 200	4.44	0.0041	> 48	–	–	–	–	–	–
O=C(OCCCCCCCCCCCCCCOC(=O)c1ccc(O)cc1O)c1ccc(O)cc1O	42.1	0.38	28.2	14.8	0.67	0.35	0.87	0.0157	15.9	> 100	–	36.6	–	–	> 400	> 9	–	–	–	–
N=C(N)c1ccc(/N=N/Nc2ccc(C(=N)N)cc2)cc1 [DIMINAZENE]	–	–	–	–	–	–	12	–	–	0.2	–	–	–	–	–	–	–	–	–	–
O=C(OCCCCCCCCCCCCCCCCOC(=O)c1ccc(O)cc1O)c1ccc(O)cc1O	26.7	0.46	14.3	9.3	0.54	0.35	1.2	0.0123	12.4	> 100	–	31.9	–	–	> 400	> 15	–	–	–	–
O=C(OCCCCCCCCCCCCCCCC[P+](c1ccccc1)(c1ccccc1)c1ccccc1)c1ccc(O)cc1O	–	–	–	–	–	–	–	> 5	–	–	–	–	–	–	–	–	–	–	–	–
O=C(O)c1ccc(O)cc1F	–	–	–	–	–	–	–	115	–	–	–	–	–	–	–	–	–	–	–	–
Cc1cc(O)ccc1C(=O)OCCCCCCCCCCCCCCBr	14.4	0.52	7.1	7.2	0.49	0.5	1	0.007	7.5	–	> 200	14.4	–	> 13	–	–	–	–	–	–
O=C(OCCCCCCCCCCCCCCCC[n+]1cccc2ccccc21)c1ccc(O)cc1O	–	–	–	–	–	–	–	> 5	–	–	–	–	–	–	–	–	–	–	–	–
O=C(O)c1ccc(O)cc1O [2,4-DIHYDROXYBENZOIC ACID]	–	–	–	16.6	–	0.96	–	116	–	–	–	–	–	–	–	–	–	–	–	–
Cc1cc(O)ccc1C(=O)O	–	–	–	–	–	–	–	112	–	–	–	–	–	–	–	–	–	–	–	–
O=C(OCCCCCCCCCCCCCCBr)c1ccc(O)cc1F	14.7	0.49	6.8	7	0.46	0.48	1.2	0.03	7.19	> 50	> 200	17.3	–	> 13	–	–	–	–	–	–
Cc1cc(O)cc(O)c1C(=O)O [ORSELLINIC ACID]	–	–	–	–	–	–	–	143	–	–	–	–	–	–	–	–	–	–	–	–
O=Cc1ccc(OCCCCCCCCCCCCCC[n+]2cccc3ccccc32)cc1O.[Br-]	1.75	0.7	0.95	1.08	0.54	0.62	1.3	1.23	1.23	2.1	> 200	2.35	–	> 114	–	–	> 95	–	–	–
O=COCCCCCCCCCCOC(=O)c1ccc(O)cc1O	–	0.55	27.4	15.6	0.86	0.49	0.69	0.15	17.5	–	–	–	–	–	> 400	> 12	–	–	–	–
Cc1cc(O)ccc1C(=O)OCCCCCCCCCCCCCCOC(=O)c1ccc(O)cc1C	400	–	400	400	–	–	–	0.013	400	400	> 200	400	–	–	–	–	–	–	–	–
O=C(OCCCCCCCCCCCCCCBr)c1ccc(O)cc1O	–	–	–	–	–	–	–	0.0108	–	–	–	–	–	–	–	–	–	–	–	–
O=Cc1ccc(OCCCCCCCCCCCCCCBr)cc1O	17.6	0.61	8.4	7.9	0.48	0.45	0.9	0.073	10.7	42.6	> 200	15.5	–	> 11	–	–	> 4.6	–	–	–
O=C(OCCCCCCCCCCCCOC(=O)c1ccc(O)cc1O)c1ccc(O)cc1O	32.9	0.41	26.7	8.9	0.81	0.27	1	0.007	13.6	> 100	–	33.6	–	–	> 400	> 12	–	–	–	–
O=COCCCCCCCCCCCCCCOc1ccc(C=O)c(O)c1	3.8	0.48	1.4	1.82	0.38	0.48	1	0.33	1.8	–	> 200	3.6	–	> 52	–	–	–	–	–	–
O=C(OCCCCCCBr)c1ccc(O)cc1O	17.7	0.68	11.6	12.1	0.65	0.68	1.2	0.24	12.1	72.9	> 200	20.5	–	> 11	–	–	> 2.7	–	–	–
O=C(OCCCCBr)c1ccc(O)cc1O	400	–	400	400	–	–	–	0.45	400	–	> 200	400	–	–	–	–	–	–	–	–
O=C(OCCCCCCCCCCCCCC[P+](c1ccccc1)(c1ccccc1)c1ccccc1)c1ccc(O)cc1F.[Br-]	0.00058	0.66	0.00025	0.00037	0.43	0.64	1.3	0.03	0.00039	0.018	> 200	0.00075	–	> 344000	–	–	> 11000	5 - 40	5 - 40	< 15
O=C(NO)c1ccccc1O [SALICYLHYDROXAMIC ACID]	–	–	31.9	8.9	–	–	–	–	–	–	–	–	–	–	–	–	–	–	–	–
Cc1cc(O)cc(O)c1C(=O)OCCCCCCCCCCCCCCBr	14.6	0.53	7.3	6.8	0.5	0.47	1.1	0.007	7.71	> 100	> 200	15.6	–	> 13	–	–	–	–	–	–
O=C(OCCCCCCCCCCCCCCCCBr)c1ccc(O)cc1O	–	0.24	14.5	5.1	0.32	0.11	1.07	0.0124	11.1	–	–	–	–	–	> 400	> 8	–	–	–	–
O=C(OCCCCCCCCCCCCCC[P+](c1ccccc1)(c1ccccc1)c1ccccc1)c1ccc(O)cc1O	–	–	–	–	–	–	–	1.46	–	–	–	–	–	–	–	–	–	–	–	–
